{
  "source": "paper PMC4360375",
  "about": "(Journal of Medicinal Chemistry, 2015)",
  "key": {"rGAT1": {"molecular_target": "T1, rGAT1 (Rattus norvegicus, UniProt P23978)", "T1 construct": "Y prefix of 'YrGAT-1' (own knowledge: yellow fluorescent protein, YFP, fused to rGAT1 in this group's constructs); expressed in transfected cells; host or cells: HEK293", "assay": "[3H]-GABA uptake inhibition assay in HEK293 cells stably expressing rGAT1", "type": "cell-based", "settings": "for effect on [3H]-GABA uptake, in words: 100 μM compound; for remaining activity at 100 µM: HEK293, 100 μM of the respective compound; for remaining activity at 100 µM / % uptake (remaining uptake of [3H]-GABA): n = 3, relative to saline; for % uptake (remaining uptake of [3H]-GABA): 100 μM of the respective compound"}, "[1]": {"set-up": "method as in PMID 10903390", "settings": "cited from earlier work"}, "[2]": {"tested_on": "GABA uptake, rat synaptosome", "settings": "cited from earlier work; for pIC50: literature data set"}, "[3]": {"tested_on": "other neurotransmitter reuptake systems (dopamine, serotonin, choline, aspartate)", "set-up": "method as in PMID 3509068", "settings": "cited from earlier work"}},
  "note": "Where two headings read alike, the source gives them in different places.",
  "data": [
    {"compound": "N[C@@H](Cc1cc(I)c(Oc2cc(I)c(O)c(I)c2)c(I)c1)C(=O)O", "note": "[27b, levothyroxine]", "values": [
      {"measurement": "effect on [3H]-GABA uptake, in words", "setting": "rGAT1", "result": "reduced uptake, albeit weaker than 27a"},
      {"measurement": "remaining activity at 100 µM", "setting": "rGAT1", "result": 54.2, "unit": "%"}
    ]},
    {"compound": "N[C@H](Cc1cc(I)c(Oc2cc(I)c(O)c(I)c2)c(I)c1)C(=O)O", "note": "[27c, dextrothyroxine]", "values": [
      {"measurement": "remaining activity at 100 µM", "setting": "rGAT1", "result": 127, "unit": "%"}
    ]},
    {"compound": "O=C(O)C1CCCNC1", "note": "(stereo not drawn) [compound 2, nipecotic acid]", "values": [
      {"measurement": "blood-brain barrier penetration", "setting": "[1]", "result": "unable to penetrate the blood–brain barrier"}
    ]},
    {"compound": "O=C(O)C1=CCCNC1", "note": "[compound 3, guvacine]", "values": [
      {"measurement": "blood-brain barrier penetration", "setting": "[1]", "result": "unable to penetrate the blood–brain barrier"}
    ]},
    {"compound": "Cc1ccsc1C(=COCCN1CCC[C@@H](C(=O)O)C1)c1sccc1C", "note": "[compound 6, s1ccc(C)c1\\C(=C\\OCCN1C[C@@H](CCC1)C(O)=O)\\c1sccc1C]", "values": [
      {"measurement": "pIC50", "setting": "[2]; ref 10.1021/jm981027k", "result": 7.854}
    ]},
    {"compound": "O=C(O)[C@@H]1CCCN(CCC=C2c3ccccc3-c3ccccc32)C1", "note": "[compound 7, OC(=O)[C@@H]1CCCN(C1)CC\\C=C/1\\c2c(-c3c\\1cccc3)cccc2]", "values": [
      {"measurement": "pIC50", "setting": "[2]; ref 10.1021/jm00064a005", "result": 5.717}
    ]},
    {"compound": "O=C(O)[C@@H]1CCCN(CCOCCC(c2ccccc2)c2ccccc2)C1", "note": "[compound 8, O(CCC(c1ccccc1)c1ccccc1)CCN1C[C@@H](CCC1)C(O)=O]", "values": [
      {"measurement": "pIC50", "setting": "[2]; ref 10.1021/jm980492e", "result": 7.26}
    ]},
    {"compound": "O=C(O)[C@@H]1CCCN(CCCCCC(c2ccccc2)c2ccccc2)C1", "note": "[compound 9, OC(=O)[C@@H]1CCCN(C1)CCCCCC(c1ccccc1)c1ccccc1]", "values": [
      {"measurement": "IC50", "setting": "[2]; Figure 2, rat synaptosome GABA uptake, read-out: literature IC50", "result": 1590, "unit": "nM"},
      {"measurement": "pIC50", "setting": "[2]; ref 10.1021/jm980492e", "result": 5.799}
    ]},
    {"compound": "O=C(O)[C@@H]1CCCN(CCO/N=C(/c2ccccc2)c2ccccn2)C1", "note": "[compound 11, O(\\N=C(\\c1ccccc1)/c1ncccc1)CCN1C[C@@H](CCC1)C(O)=O]", "values": [
      {"measurement": "pIC50", "setting": "[2]; ref 10.1021/jm981027k", "result": 5.684}
    ]},
    {"compound": "CCN(CCC(=O)O)Cc1nc2c(C)cccc2c(=O)[nH]1", "note": "[compound 12]", "values": [
      {"measurement": "remaining activity at 100 µM", "setting": "rGAT1", "result": 105, "unit": "%"}
    ]},
    {"compound": "CC(C(=O)Nc1ccc(Br)cc1Br)N1CCCC(CC(=O)O)C1", "note": "(stereo not drawn) [compound 13]", "values": [
      {"measurement": "remaining activity at 100 µM", "setting": "rGAT1", "result": 93.2, "unit": "%"}
    ]},
    {"compound": "O=C(O)CN1CCC(CCc2ccccc2C(F)(F)F)CC1", "note": "[compound 14]", "values": [
      {"measurement": "remaining activity at 100 µM", "setting": "rGAT1", "result": 99, "unit": "%"}
    ]},
    {"compound": "CC(C(=O)O)N1CCCN(C(=O)c2ccccc2C(F)(F)F)CC1", "note": "(stereo not drawn) [compound 15]", "values": [
      {"measurement": "remaining activity at 100 µM", "setting": "rGAT1", "result": 104, "unit": "%"}
    ]},
    {"compound": "O=C(O)CN1CCCC1Cc1ccccc1Cl", "note": "(stereo not drawn) [compound 16]", "values": [
      {"measurement": "remaining activity at 100 µM", "setting": "rGAT1", "result": 95.1, "unit": "%"}
    ]},
    {"compound": "O=C(CCN1CCCC1C(=O)O)Nc1ccccc1Oc1ccccc1", "note": "(stereo not drawn) [compound 18]", "values": [
      {"measurement": "effect on [3H]-GABA uptake, in words", "setting": "rGAT1", "result": "some weak activity"},
      {"measurement": "remaining activity at 100 µM", "setting": "rGAT1", "result": 79.3, "unit": "%"}
    ]},
    {"compound": "Fc1cc(Br)cc(CN2CCCC(c3nnn[nH]3)C2)c1", "note": "(stereo not drawn) [compound 19]", "values": [
      {"measurement": "remaining activity at 100 µM", "setting": "rGAT1", "result": 91, "unit": "%"}
    ]},
    {"compound": "Cc1nn(Cc2ccccc2Cl)c(C)c1CN(C)C(C)C(=O)O", "note": "(stereo not drawn) [compound 20]", "values": [
      {"measurement": "remaining activity at 100 µM", "setting": "rGAT1", "result": 93.9, "unit": "%"}
    ]},
    {"compound": "O=C(CN1CCC[C@H]1C(=O)O)NC(c1ccc(F)cc1)c1cccs1", "note": "(stereo partly drawn) [compound 21]", "values": [
      {"measurement": "remaining activity at 100 µM", "setting": "rGAT1", "result": 94.7, "unit": "%"}
    ]},
    {"compound": "Cc1cc(S(=O)(=O)N2CCN(CCC(=O)O)CC2)ccc1Br", "note": "[compound 22]", "values": [
      {"measurement": "remaining activity at 100 µM", "setting": "rGAT1", "result": 104, "unit": "%"}
    ]},
    {"compound": "NC(CSCc1cccc2ccccc12)C(=O)O", "note": "(stereo not drawn) [compound 23]", "values": [
      {"measurement": "remaining activity at 100 µM", "setting": "rGAT1", "result": 108, "unit": "%"}
    ]},
    {"compound": "CCC(CC)OC1C=C(C(=O)O)CC(N)C1NC(C)=O", "note": "(stereo not drawn) [compound 24]", "values": [
      {"measurement": "remaining activity at 100 µM", "setting": "rGAT1", "result": 105, "unit": "%"}
    ]},
    {"compound": "bepotastine [compound 25]", "values": [
      {"measurement": "effect on [3H]-GABA uptake, in words", "setting": "rGAT1", "result": "inactive"},
      {"measurement": "effect on [3H]-GABA uptake, in words", "setting": "rGAT1; listed as bepotastine", "result": "essentially inactive"},
      {"measurement": "% uptake (remaining uptake of [3H]-GABA)", "setting": "rGAT1", "result": 103.8, "unit": "%"}
    ]},
    {"compound": "liothyronine [27a]", "values": [
      {"measurement": "activity on other neurotransmitter reuptake systems", "setting": "[3]", "result": "without major activity"}
    ]},
    {"compound": "ramipril [compound 26]", "values": [
      {"measurement": "effect on [3H]-GABA uptake, in words", "setting": "rGAT1", "result": "inactive"},
      {"measurement": "% uptake (remaining uptake of [3H]-GABA)", "setting": "rGAT1", "result": 107.7, "unit": "%"}
    ]}
  ]
}
